According to patent US10711000B2 (Fronthera U.S. Pharmaceuticals LLC, priority 2018, dated 2020):

Legend:
[1] = Pharmacokinetics in beagle dogs; assay type: in vivo; conditions: male, dog, plasma, po, P.O. (1 mg/kg)
Description: The pharmacokinetics and pharmacodynamics of test compounds after a single oral dose were investigated in SD rats, Beagle dog and Cynomolgus monkey. SD Rats (200-250 g) were purchased from Beijing Vital River Laboratory Animal Technology Co., Ltd. Male Beagle Dog, 6-9 kg, were purchased from Beijing Mashall. Male Cynomolgus monkeys, 3-5 kg, were purchased from Suzhou Xishan Zhongke Drugs Research and Development Co., Ltd. Following arrival, the animals were acclimated for 7 days in individual cages maintained at ambient temperature, 34 to 68% relative humidity, and 12-h light/dark cycles. Just prior to dose administration the rats were fasted overnight with free access to water. Animals were given 10 mL/kg of formulated compound in 0.5% methylcellulose (MC) by oral gavage, and the animals were fed four hours after dosing. The animals were manually restrained at the designated time points (pre-dose, 0.5, 1, 3, 6, 9, 12, and 24 h post-dose) to collect blood. Approximately 120 μL of blood was collected via orbital sinus into K2EDTA tubes. The blood samples were centrifuged at 5000 rpm for 10 min at 4° C. to obtain plasma samples.
To determine the compound concentration in the plasma samples, a 10× calibration standard of compound were prepared by serial dilution in DMSO: 20000, 10000, 5000, 2000, 1000, 500, 200, 100, 50, 20, and 10 ng/mL. 3 μL of calibration standard solution was added into 27.0 μL of blank plasma in 1.5-mL microcentrifuge tubes to generate 1× calibration standards. The 30.0 μL of standards or study plasma was mixed with 200 μL of acetonitrile (containing 5 ng/mL verapamil for internal control) in a 1.5-mL microcentrifuge tube. After vertexing for 1 minute and centrifuging at 10000 rpm for 10 min, 180 μL of supernatant was transferred into a 96-well plate and the compound concentration in the plasma was quantitated using LC/MS/MS together with standards. Briefly, 1 μL of the solutions were injected for LC-MS/MS analysis using an Agilent Zorbax C18 column (50×2.1 mm, 3.5 μm) with mobile phase A [5 mM NH4Ac (0.1% FA)] and phase B [Methanol (0.1% FA)]. Mass spectrometer parameters optimization for compound was performed by infusing standard diluted at 1 μg/mL in water/methanol (1/1, v/v) directly in the ionization source at a flow of 10 μL/min. Quantitative data were acquired in multiple reaction monitoring (MRM) positive APCI mode.

CYP 1A2 = biological target: T1, CYP 1A2 (Homo sapiens, UniProt P05177); assay: CYP inhibition in human liver microsome; assay type: in vitro ADME; conditions: human liver microsomes, substrate phenacetin (10 μM); compounds diluted 1:3 starting at 50 μM; read-out: IC50 in CYP isozyme 1A2
T1 construct: from tissue; host or cells: human liver microsomes
T1 sequence (P05177 1-516): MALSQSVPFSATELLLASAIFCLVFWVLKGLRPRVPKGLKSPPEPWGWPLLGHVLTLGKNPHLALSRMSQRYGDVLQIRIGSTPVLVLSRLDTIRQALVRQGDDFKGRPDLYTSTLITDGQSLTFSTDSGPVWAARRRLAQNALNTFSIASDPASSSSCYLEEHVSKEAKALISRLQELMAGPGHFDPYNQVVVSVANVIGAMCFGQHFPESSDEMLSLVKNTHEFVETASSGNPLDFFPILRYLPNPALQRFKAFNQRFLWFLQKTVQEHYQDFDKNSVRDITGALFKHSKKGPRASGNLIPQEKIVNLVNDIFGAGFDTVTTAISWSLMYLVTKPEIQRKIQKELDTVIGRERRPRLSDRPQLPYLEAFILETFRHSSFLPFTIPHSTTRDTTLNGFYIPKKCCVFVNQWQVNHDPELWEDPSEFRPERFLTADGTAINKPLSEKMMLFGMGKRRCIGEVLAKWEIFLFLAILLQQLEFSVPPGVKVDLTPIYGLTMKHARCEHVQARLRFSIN
Protocol: (§1) Test compounds were evaluated for CYP inhibition using human liver microsomes (HLM). Test compounds were 1:3 serially diluted starting at 50 μM to generate 7 different concentrations. After incubation of diluted test compounds with HLM, a substrate cocktail composed of phenacetin (10 μM), amodiaquine (2 μM), diclofenac (5 μM), s-mephenytoin (30 μM), dextromethorphan (5 μM), and midazolam (2 μM) was added to check the remaining CYP activity for CYP 1A2, 2C8, 2C9, 2C19, 2D6 and 3A4. The CYP activity was measured by detecting the peak area of individual metabolites of know CYP substrates using LC/MS/MS. A percentage of inhibition of CYP was calculated at each final concentration of test compound, through which an IC50 was fitted to represent the inhibition potential.

CYP 2C19 = biological target: T2, CYP 2C19 (Homo sapiens, UniProt P33261); assay: CYP inhibition in human liver microsome; assay type: in vitro ADME; conditions: human liver microsomes, substrate s-mephenytoin (30 μM); compounds diluted 1:3 starting at 50 μM; read-out: IC50 in CYP isozyme 2C19
T2 construct: from tissue; host or cells: human liver microsomes
T2 sequence (P33261 whole entry): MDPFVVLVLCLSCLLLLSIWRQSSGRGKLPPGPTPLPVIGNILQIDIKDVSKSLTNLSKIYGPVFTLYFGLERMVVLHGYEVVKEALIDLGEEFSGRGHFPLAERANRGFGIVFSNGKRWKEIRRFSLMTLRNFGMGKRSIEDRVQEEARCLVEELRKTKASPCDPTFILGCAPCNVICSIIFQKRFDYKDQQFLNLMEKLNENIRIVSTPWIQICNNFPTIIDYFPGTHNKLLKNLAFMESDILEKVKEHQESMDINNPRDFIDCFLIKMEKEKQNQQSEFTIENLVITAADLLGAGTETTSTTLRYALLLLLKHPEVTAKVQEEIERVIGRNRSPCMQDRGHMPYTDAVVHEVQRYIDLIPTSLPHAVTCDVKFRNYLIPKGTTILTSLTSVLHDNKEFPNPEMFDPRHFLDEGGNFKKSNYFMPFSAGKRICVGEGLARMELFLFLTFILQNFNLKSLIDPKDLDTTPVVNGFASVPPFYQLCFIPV
Protocol: as §1

CYP 2C9 = biological target: T3, CYP 2C9 (Homo sapiens, UniProt P11712); assay: CYP inhibition in human liver microsome; assay type: in vitro ADME; conditions: human liver microsomes, substrate diclofenac (5 μM); compounds diluted 1:3 starting at 50 μM; read-out: IC50 in CYP isozyme 2C9
T3 construct: from tissue; host or cells: human liver microsomes
T3 sequence (P11712 whole entry): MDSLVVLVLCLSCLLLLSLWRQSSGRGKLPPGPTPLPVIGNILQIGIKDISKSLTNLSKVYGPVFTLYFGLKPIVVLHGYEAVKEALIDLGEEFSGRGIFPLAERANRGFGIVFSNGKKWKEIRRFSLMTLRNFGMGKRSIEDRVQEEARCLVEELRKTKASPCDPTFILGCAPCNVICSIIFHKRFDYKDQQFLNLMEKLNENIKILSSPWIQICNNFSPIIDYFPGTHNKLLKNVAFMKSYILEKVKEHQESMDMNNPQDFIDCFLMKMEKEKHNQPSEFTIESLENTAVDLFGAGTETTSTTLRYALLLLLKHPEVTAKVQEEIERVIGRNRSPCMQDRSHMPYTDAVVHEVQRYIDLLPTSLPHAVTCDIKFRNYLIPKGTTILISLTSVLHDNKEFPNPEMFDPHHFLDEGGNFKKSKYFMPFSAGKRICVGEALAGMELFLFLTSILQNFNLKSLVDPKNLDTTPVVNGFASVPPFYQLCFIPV
Protocol: as §1

CYP 2D6 = biological target: T4, CYP 2D6 (Homo sapiens, UniProt P10635); assay: CYP inhibition in human liver microsome; assay type: in vitro ADME; conditions: human liver microsomes, substrate dextromethorphan (5 μM); compounds diluted 1:3 starting at 50 μM; read-out: IC50 in CYP isozyme 2D6
T4 construct: from tissue; host or cells: human liver microsomes
T4 sequence (P10635 whole entry): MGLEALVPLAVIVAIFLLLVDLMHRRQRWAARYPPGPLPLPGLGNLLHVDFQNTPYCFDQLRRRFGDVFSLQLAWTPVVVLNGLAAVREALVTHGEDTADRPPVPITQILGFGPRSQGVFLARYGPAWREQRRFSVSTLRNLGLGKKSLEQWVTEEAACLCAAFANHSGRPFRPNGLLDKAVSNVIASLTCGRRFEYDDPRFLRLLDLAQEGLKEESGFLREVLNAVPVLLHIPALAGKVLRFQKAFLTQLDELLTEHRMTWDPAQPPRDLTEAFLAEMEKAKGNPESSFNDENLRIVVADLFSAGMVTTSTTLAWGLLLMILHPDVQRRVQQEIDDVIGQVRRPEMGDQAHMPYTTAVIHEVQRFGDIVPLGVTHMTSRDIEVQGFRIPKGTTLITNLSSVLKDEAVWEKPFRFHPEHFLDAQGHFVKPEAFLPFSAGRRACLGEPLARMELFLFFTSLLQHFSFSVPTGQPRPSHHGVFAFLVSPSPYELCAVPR
Protocol: as §1

CYP 3A4 = biological target: T5, CYP 3A4 (Homo sapiens, UniProt P08684); assay: CYP inhibition in human liver microsome; assay type: in vitro ADME; conditions: human liver microsomes, substrate midazolam (2 μM); compounds diluted 1:3 starting at 50 μM; read-out: IC50 in CYP isozyme 3A4
T5 construct: from tissue; host or cells: human liver microsomes
T5 sequence (P08684 whole entry): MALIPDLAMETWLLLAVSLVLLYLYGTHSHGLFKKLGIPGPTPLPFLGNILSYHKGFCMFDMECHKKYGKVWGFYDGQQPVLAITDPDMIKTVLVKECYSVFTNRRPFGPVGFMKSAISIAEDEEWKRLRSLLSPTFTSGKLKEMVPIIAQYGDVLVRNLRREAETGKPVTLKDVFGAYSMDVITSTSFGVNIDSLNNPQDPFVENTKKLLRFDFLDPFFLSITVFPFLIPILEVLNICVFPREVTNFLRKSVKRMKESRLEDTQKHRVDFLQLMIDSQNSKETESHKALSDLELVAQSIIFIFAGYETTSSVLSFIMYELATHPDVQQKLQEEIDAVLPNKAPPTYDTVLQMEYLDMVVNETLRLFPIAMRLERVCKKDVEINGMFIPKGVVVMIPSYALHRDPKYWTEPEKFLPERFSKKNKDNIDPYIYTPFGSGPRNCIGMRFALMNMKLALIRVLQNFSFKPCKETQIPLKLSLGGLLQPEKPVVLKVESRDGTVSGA
Protocol: as §1

[2] = Pharmacokinetics in cynomolgus monkeys; assay type: in vivo; conditions: male, cynomolgus monkey, plasma, iv, I.V. (1 mg/kg)

CCn1nc2ncc(N3CC4(CN(C(=O)C5CCOCC5)C4)C3)cc2c1N(C)c1nc(-c2ccc(F)cc2)c(C#N)s1 [Compound 118, 2-((2-ethyl-5-(6-(tetrahydro-2H-pyran-4-carbonyl)-2,6-diazaspiro[3.3]heptan-2-yl)-2H-pyrazolo[3,4-b]pyridin-3-yl)(methyl)amino)-4-(4-fluorophenyl)thiazole-5-carbonitrile]
AUC [1]: 900 ± 305 ng·h/mL
Cmax [1]: 165 ± 40 ng/mL
bioavailability [1]: 40.7 ± 14%
half-life [1]: 3.99 ± 0.89 h
IC50 (CYP 1A2): > 50 µM
IC50 (CYP 2C19): > 50 µM
IC50 (CYP 2C9): 15.9 µM
IC50 (CYP 2D6): > 50 µM
IC50 (CYP 3A4): > 50 µM
AUC [2]: 2640 ± 473 ng·h/mL
C0 [2]: 993 ± 8.6 ng/mL
clearance [2]: 6.06 ± 1.2 mL/min/kg
half-life [2]: 6.59 ± 1.5 h

CCc1nn2cc(F)c(N3CCN(CC(=O)N4CC(O)C4)CC3)cc2c1N(C)c1nc(-c2ccc(F)cc2)c(C#N)s1 [Example 101, 2-[[2-ethyl-6-fluoro-5-[4-[2-(3-hydroxyazetidin-1-yl)-2-oxo-ethyl]piperazin-1-yl]pyrazolo[1,5-a]pyridin-3-yl]-methyl-amino]-4-(4-fluorophenyl)thiazole-5-carbonitrile]
AUC [1]: 4020 ± 549 ng·h/mL
Cmax [1]: 425 ± 68 ng/mL
bioavailability [1]: 36.1 ± 4.9%
half-life [1]: 4.69 ± 0.17 h
IC50 (CYP 1A2): > 50 µM
IC50 (CYP 2C19): 45.5 µM
IC50 (CYP 2C9): 17.3 µM
IC50 (CYP 2D6): > 50 µM
IC50 (CYP 3A4): > 50 µM
AUC [2]: 1990 ± 92 ng·h/mL
C0 [2]: 1220 ± 166 ng/mL
clearance [2]: 8.21 ± 0.38 mL/min/kg
half-life [2]: 1.82 ± 0.1 h

CCc1nn2cc(F)c(N3CC4(CN(C(=O)[C@H]5CCOC5)C4)C3)cc2c1N(C)c1nc(-c2ccc(F)cc2)c(C#N)s1 [Example 102, 2-[[2-ethyl-6-fluoro-5-[2-[(3S)-tetrahydrofuran-3-carbonyl]-2,6-diazaspiro[3.3]heptan-6-yl]pyrazolo[1,5-a]pyridin-3-yl]-methyl-amino]-4-(4-fluorophenyl)thiazole-5-carbonitrile]
AUC [1]: 2190 ± 325 ng·h/mL
Cmax [1]: 192 ± 26 ng/mL
bioavailability [1]: 33.9 ± 5%
half-life [1]: 20.4 ± 6.1 h
IC50 (CYP 1A2): 13.9 µM
IC50 (CYP 2C19): 11.9 µM
IC50 (CYP 2C9): 5.69 µM
IC50 (CYP 2D6): > 50 µM
IC50 (CYP 3A4): > 50 µM

CCc1nc2c(C)cc(N3CCN(CC(=O)N4CC(O)C4)CC3)cn2c1N(C)c1nc(-c2ccc(F)cc2)c(C#N)s1 [GLPG1690]
AUC [1]: 5760 ± 672 ng·h/mL
Cmax [1]: 1130 ± 229 ng/mL
bioavailability [1]: 66.2 ± 7.5%
half-life [1]: 3.04 ± 0.77 h
IC50 (CYP 1A2): > 50 µM
IC50 (CYP 2C19): 40.2 µM
IC50 (CYP 2C9): 16.7 µM
IC50 (CYP 2D6): > 50 µM
IC50 (CYP 3A4): 13.5 µM
AUC [2]: 2770 ± 246 ng·h/mL
C0 [2]: 4210 ± 1150 ng/mL
clearance [2]: 6.02 ± 0.51 mL/min/kg
half-life [2]: 1.41 ± 0.19 h
